Where two headings read alike, the source gives them in different places. Marks after values point to notes of the source that are not given here.
What was measured:
[1] = system: patients with chronic inflammatory bowel disease; assay: Clinical disease activity, symptoms, compliance and tolerability during oral iron therapy; format: in vivo, human; conditions: human, in vivo
Experimental: The status of the clinical disease was recorded before (day 1) and after (day 15) the iron therapy. The clinical disease activity was evaluated in patients with Crohn's disease with the “Harvey-Bradshaw Simple Index of Crohn's Disease Activity” (Harvey, R F., Bradshaw, J M., Lancet, 1980; 1:514). The Harvey-Bradshaw Simple Index is based on 5 parameters: general well-being, abdominal pain, stool frequency, abdominal mass and extraintestinal complications. The maximum score is 25 and scores of ≧5 indicate active Crohn's disease.
In patients with colitis ulcerosa, the “Simple Clinical Colitis Activity Index” was recorded (Walmsley, R S., Ayres, R C., Pounder, R E., Allan, R N., Gut 1998; 43; 29-32). The Simple Clinical Colitis Activity Index is based on 6 parameters: general well-being, stool frequency during the day and during the night, urgency of defecation, blood in the stool and extraintestinal complications. The maximum score is 20 and values of ≧4 indicate active colitis ulcerosa.
The Harvey-Bradshaw Simple Index and the Simple Clinical Colitis Activity Index are the same in respect of structure and the clinical significance of a given change in the scores. In order to allow the results of patients with Crohn's disease and colitis ulcerosa to be considered together, the activity scores were calculated as the actual score divided by the maximum score.
All the patients completed the particular Crohn's Disease Activity Index (CDAI) diary card (Best, W R., Becktel, J M., Singleton, J W., Kern, F. Jr., Gastroenterology 1976; 70:439-444) in the week before the start of the iron therapy and during the two weeks of iron therapy. The CDAI diary card comprises daily recording of general well-being, abdominal pain and the number of liquid or very soft stools. The total of seven daily records gives a score for each symptom. The higher the score, the more the patient is adversely affected. The medicament was administered during the study for 14 days and the mean for the two weeks is therefore used for the analysis. The patients also documented the occurrence of nausea before and during the iron therapy.
Patients who discontinued treatment with the medicament because of a deterioration in the symptoms were included in the analysis of the clinical disease activity and the symptom scores. Their disease activity scores were increased by two points, and the symptom scores were increased by one point per day.

[2] = system: patients with chronic inflammatory bowel disease; assay: Markers of oxidative stress (plasma, urine) before and after 14 days oral iron therapy; conditions: in vivo
Experimental: (§1) Analysis of the blood, urine and stool and the clinical evaluation of the disease were carried out on day 1 and 15.
(§2) The tablets were taken in accordance with the manufacturer's recommendations. Patient compliance was defined as the consumption of the tablets handed out, 80% being regarded as satisfactory.
(§3) Blood samples were taken, after fasting during the night, on the morning of day 1 and day 15.
Urine samples were collected on the morning of day 1 and day 15 and analysed for creatinine. Butyl-hydroxy-toluene (BHT) was added to 2 ml urine to a final concentration of 20 mM. The samples were then stored at −80° C. until analysed for urine 8-isoprostaglandin F2α (8-iso-PGF2α).
The values were analysed using the Wilcoxon test for pair differences, and the median and range are stated. The comparison of ratios was evaluated with the Fisher Exact test. P values of less than 0.05 are considered to be statistically significant. The data were analysed using the GraphPad Prism 4 for Windows statistics software package (GraphPad Software, Inc., San Diego, USA).

[3] = system: patients with chronic inflammatory bowel disease; conditions: for B-erythrocyte count / B-haematocrit / B-reticulocyte count / Hypochromic red cells (HYPO) / MCH / MCHC / MCV / Reticulocyte haemoglobin (CHr) / B-haemoglobin / S-ferritin / S-iron / S-soluble transferrin receptor / S-total iron binding capacity: mean (SEM); for B-haemoglobin: blood; for B-ESR / B-leukocyte count / B-platelet count / S-CRP: in vivo; for S-ferritin / S-iron / S-soluble transferrin receptor / S-total iron binding capacity: serum
Experimental: as §1, §2, §3
The values were analysed using the Wilcoxon test for pair differences, and the median and range are stated. The comparison of ratios was evaluated with the Fisher Exact test. […] The data were analysed using the GraphPad Prism 4 for Windows statistics software package (GraphPad Software, Inc., San Diego, USA).

Substance: iron(III)-polymaltose complex
- Increased nausea reported [1]: 7/20
- change of clinical disease activity indices [1]: Neither the treatment with iron(II) sulfate (p=0.45) nor the treatment with iron(III)-polymaltose complex (p=0.80) substantially changed the clinical disease activity indices
- influence on general wellbeing or abdominal pain score [1]: Neither iron(II) sulfate nor iron(III)-polymaltose complex had an influence
- patients who discontinued the treatment (intolerable bowel movements, abdominal pain and nausea) [1]: one patient
- tolerability of the iron therapy [1]: good tolerability
- P-beta-carotene [2]: 0.59 (0.13) μmol/l
- P-cysteinyl-glycine [2]: 18.7 (0.9) μmol/l
- P-glutathione [2]: 5.22 (0.30) μmol/l
- P-homocysteine [2]: 6.53 (1.16) μmol/l
- P-malondialdehyde [2]: 275 (21) nmol/l
- P-vitamin A [2]: 1.6 (0.1) μmol/l
- P-vitamin E [2]: 29.3 (1.6) μmol/l
- change in plasma MDA values [2]: did not significantly change
- change in urine iso-PGF2α values [2]: did not significantly change
- P-beta-carotene ([2]; po): 0.57 (0.09) μmol/l
- P-cysteinyl-glycine ([2]; po): 18.5 (1.1) μmol/l
- P-glutathione ([2]; po): 5.43 (0.43) μmol/l
- P-homocysteine ([2]; po): 6.04 (0.94) μmol/l
- P-malondialdehyde ([2]; po): 300 (19) nmol/l
- P-vitamin A ([2]; po): 1.9 (0.3) μmol/l
- P-vitamin E ([2]; po): 28.3 (1.7) μmol/l
- increase of blood haemoglobin ([3]; 14 days treatment): Neither iron(II) sulfate nor iron(III)-polymaltose complex increased the blood haemoglobin
- B-erythrocyte count ([3]; after 14 days oral treatment): 4.7 (0.1) 10^12/l
- B-haematocrit ([3]; after 14 days oral treatment): 40 (1) %
- B-reticulocyte count ([3]; after 14 days oral treatment): 0.075 (0.008)* 10^12/l
- Hypochromic red cells (HYPO) ([3]; after 14 days oral treatment): 10.6 (2.8) %
- MCH ([3]; after 14 days oral treatment): 27 (0.7) pg
- MCHC ([3]; after 14 days oral treatment): 31.2 (0.3) g/dl
- MCV ([3]; after 14 days oral treatment): 85 (1.6) fl
- Reticulocyte haemoglobin (CHr) ([3]; after 14 days oral treatment): 29.5 (0.7) pg
- B-erythrocyte count ([3]; before treatment): 4.7 (0.1) 10^12/l
- B-haematocrit ([3]; before treatment): 39 (1) %
- B-reticulocyte count ([3]; before treatment): 0.059 (0.006) 10^12/l
- Hypochromic red cells (HYPO) ([3]; before treatment): 10.3 (3.0) %
- MCH ([3]; before treatment): 27 (0.7) pg
- MCHC ([3]; before treatment): 31.6 (0.3) g/dl
- MCV ([3]; before treatment): 84 (1.8) fl
- Reticulocyte haemoglobin (CHr) ([3]; before treatment): 29.1 (0.8) pg
- B-haemoglobin ([3]; after 14 days oral treatment): 12.5 (0.3) g/dl
- B-haemoglobin ([3]; before treatment): 12.5 (0.3) g/dl
- B-ESR [3]: 22 (3) mm/h
- B-leukocyte count [3]: 6.9 (0.6) 10^9/l
- B-platelet count [3]: 347 (18) 10^9/l
- S-CRP [3]: 12 (3) mg/l
- B-ESR ([3]; po): 20 (3)* mm/h
- B-leukocyte count ([3]; po): 7.0 (0.7) 10^9/l
- B-platelet count ([3]; po): 343 (21) 10^9/l
- S-CRP ([3]; po): 11 (2) mg/l
- increase in blood reticulocyte count ([3]; mean of differences after vs before 14 days treatment): 1.6e+10 L⁻¹
- S-ferritin ([3]; after 14 days oral treatment): 13 (2) μg/l
- S-iron ([3]; after 14 days oral treatment): 8.9 (1.5) μmol/l
- S-soluble transferrin receptor ([3]; after 14 days oral treatment): 2.03 (0.21) mg/l
- S-total iron binding capacity ([3]; after 14 days oral treatment): 77 (2) μmol/l
- S-ferritin ([3]; before treatment): 13 (2) μg/l
- S-iron ([3]; before treatment): 8.8 (0.8) μmol/l
- S-soluble transferrin receptor ([3]; before treatment): 2.08 (0.24) mg/l
- S-total iron binding capacity ([3]; before treatment): 77 (2) μmol/l

From patent US20080234226A1, “Use Of Iron(III) Complex Compounds For The Preparation Of A Medicament For Oral Treatment Of Iron Deficiency States In Patients With Chronic Inflammatory Bowel Disease” (VIFOR (INTERNATIONAL) AG, priority 2005, published 2008)
